“Also recorded” adds a separate entry of the source. In the oligonucleotide strings, read from the 5' end, every base follows the letter of its sugar. An asterisk marks phosphorothioate; unmarked linkages are phosphodiester. Other units and linkages are bracketed, terminal groups are in braces. A string of capitals states the bases alone. d = 2'-deoxy (DNA)
Assays:
[1] = tested on: CD4+ Treg cells (Treg102, Treg164); assay: Proliferation assay with dendritic cells: Treg suppression of naive CD4+ T cell proliferation ([3H]thymidine); assay type: cell-based, human; settings: with DCs and soluble anti-CD3; CpG-A 3 ug/ml
Description: Establishing Treg cell lines and purifying natural CD4^+ CD25^+ Treg cells CD4^+ Treg clones were established from CD4^+ tumor-infiltrating lymphocytes (TIL102 and TIL164) and maintained in RPMI 1640 medium containing 10% human AB serum and recombinant IL-2 (300 IU/ml) using methods well known in the art (See, e.g., H. Y. Wang et al., Immunity 20, 107-118 (2004)). Treg clones derived from TIL102 or TIL164 cells were pooled and designated Treg102 or Treg164. Naturally occurring CD4^+ CD25^+ Treg cells were obtained by sorting CD4^+ T cell populations from fresh PBMCs after staining with anti-CD4 and anti-CD25 antibodies. To obtain optimal expansion, the OKT3 expansion method was performed using methods well known in the art (See, e.g., H. Y. Wang et al., Immunity 20, 107-118 (2004)). T cell clones were maintained at a low IL-2 concentration (300 IU/ml). Melanoma cell lines and EBV-transformed B-cell lines used in this study were cultured in RPMI 1640 medium containing 10% FCS. Human embryonic kidney (HEK) 293 and Epstein-Barr virus (EBV)-transformed B cell lines were maintained in RPMI 1640 with 10% fetal calf serum (FCS).
A. Proliferation assay with Dendritic Cells (DCs): Näive CD4^+ T cells were purified from PBMCs using microbeads (Miltenvi Biotec). DCs were generated from PBMC-derived monocytes in the presence of IL-4 (500 ng/ml) and GM-CSF (800 ng/ml) for 7 days. 1×105 näive CD4^+ T cells were cultured with regulatory T cells at different ratios (1: 0.2, 1:0.1 and 1:0.05) in 200 ul of medium containing 2×104 of DCs and anti-CD3 antibody (100 ng/ml) plus one of the following TLR ligands or cytokines: CpG-A (3 ug/ml), CpG-B (3 ug/ml), LPS (100 ng/ml), TNF.-α (20 ng/ml), IFN-α (100 ng/ml), or IL-6 (100 ng/ml). After 56 h of culture, [3H]thymidine was added at a final concentration of 1 uCi/well, followed by an additional 16 h. of culture. The incorporation of [^3H]thymidine was measured with a liquid scintillation counter, using methods well known in the art (See, e.g., M. K. Levings et al., J. Exp. Med. 196, 1335-46 (2002)). All experiments were performed in triplicate.
Two CD4^+ Treg cell lines, designated Treg102 and Treg164, were generated with a panel of Treg cell clones derived from TIL102 and TIL164 cells. […] A functional proliferation assay was employed to examine whether CpG (a TLR9 ligand), LPS (a TLR4 ligand) or the cytokines IL-6 or IFN-α could regulate the suppressive activity of antigen specific human CD4^+ Treg cells in the presence of DCs. […]

586mel human tumor cells = assay: Human 586mel tumor model in Rag1-/- mice with adoptive transfer of TIL586 and Treg102 cells; assay type: in vivo; settings: 586mel s.c. day 0; CD8+ TIL586 plus Treg102 cells with oligonucleotide on day 3; n=6 mice per group
Description: Human 586mel tumor cells (5×106) in 100 μl of buffered saline were subcutaneously injected into Rag1^−/− mice (lacking T and B cells) or Rag 2 ^−/− γC ^−/− mice (lacking T, B and NK cells) on day 0. Tumor-specific CD8^+ TIL586 cells (2.5×107), which recognize and kill 586mel cells, were injected intravenously on day 3 with or without Treg102 cells (3×106) pretreated with Poly-G10 or Poly-T10. Tumor size was measured with calipers every 2-3 days. Tumor volume was calculated on the basis of two-dimensioned measurements. Tumor growth curves were compared with the Wilcoxon rank-sum test.
The data in FIG. 4A-B confirms that TLR8 serves as a receptor for synthetic guanosine containing oligonucleotides and natural ssRNA40 and ssRNA33 ligands derived from HIV-1 virus, and that its activation in endosomes by synthetic DNA or ssRNA ligands triggers a signaling pathway that can reverse the suppressive function of Treg cells. To study the guanosine containing oligonucleotide induced reversal of Treg cell function in vivo, a human tumor model was established by subcutaneously injecting 586mel human tumor cells into Rag1^−/− (T and B cell deficient) mice. […] Tumor volumes were measured and presented as mean±SD (n=6 mice per group). P value was determined between groups as indicated. […]

Substance | proliferation of naive CD4+ T cells restored, % of normal levels [1] | tumor growth / antitumor immunity (586mel human tumor cells)
G* GGGGACGATCGTCG* G*G*G*G*G [CpG-A] | 50-80% | 
Poly-G10: guanosine oligonucleotide with protected phosphorothioate backbone (DNA dG*dG*dG*dG*dG*dG*dG*dG*dG*dG) |  | enhances antitumor immunity in vivo; also recorded: tumor growth was not detected during the first 42 days

— US20090209620A1, “Direct Reversal Of The Suppressive Function Of CD4+Regulatory T Cells Via Toll-Like Receptor 8 Signaling” (priority 2005, published 2009)
